Measured values taken from patent publication US12077503B2, “Substituted cyclic amides and their use as herbicides” (FMC CORPORATION, priority 2015, dated 2024).

Key:
Assay type in all cases: in vivo
[1] = test system: barnyardgrass (Echinochloa crus-galli); experiment: Test B flooded paddy test; conditions: Flood, 250 g ai/ha; 0 to 100 scale where 0 is no effect and 100 is complete control; 13 to 15 d
How it was run: (§1)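 Evaluation by eye, against controls, occurred 13–15 d post-treatment in a greenhouse, using a 0 (no effect) to 100 (complete control) scale. Application was into the paddy water, 3 cm deep over the soil, on 2-leaf plants.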

[2] = test system: ducksalad (Heteranthera limosa); experiment: Test B flooded paddy test; conditions: Flood, 250 g ai/ha; 0 to 100 scale where 0 is no effect and 100 is complete control; 13 to 15 d
How it was run: as §1

rice (Oryra sativa) = experiment: Test B flooded paddy test; conditions: Flood, 250 g ai/ha; 0 to 100 scale where 0 is no effect and 100 is complete control; 13 to 15 d
How it was run: as §1

[3] = test system: sedge, umbrella (small-flower umbrella sedge, Cyperus difformis); experiment: Test B flooded paddy test; conditions: Flood, 250 g ai/ha; 0 to 100 scale where 0 is no effect and 100 is complete control; 13 to 15 d
How it was run: as §1

[4] = test system: barnyardgrass (Echinochloa crus-galli); experiment: Test A postemergence
How it was run: (§2)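 In a loam soil and sand blend, planted seeds got a preemergence directed soil spray, and young plants at the one- to two-leaf stage, 2–10 cm high, got a postemergence application; ~10 d greenhouse hold; injury rated visually, 0 = none, 100 = complete control.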

[5] = test system: pigweed (Amaranthus retroflexus); experiment: Test A postemergence
How it was run: as §2

[6] = test system: ryegrass, Italian (Italian ryegrass, Lolium multiflorum); experiment: Test A postemergence
How it was run: as §2

[7] = test system: ragweed (common ragweed, Ambrosia elatior); experiment: Test A postemergence
How it was run: as §2

[8] = test system: giant foxtail (Setaria faberii); experiment: Test A postemergence
How it was run: as §2

[9] = test system: Galium (catchweed bedstraw, Galium aparine); experiment: Test A postemergence
How it was run: as §2

[10] = test system: blackgrass (Alopecurus myosuroides); experiment: Test A postemergence
How it was run: as §2

Kochia (Kochia scoparia) [11] = experiment: Test A postemergence
How it was run: as §2

corn (Zea mays) = experiment: Test A postemergence
How it was run: as §2

[12] = test system: wheat (Triticum aestivum); experiment: Test A postemergence
How it was run: as §2

[13] = test system: barnyardgrass (Echinochloa crus-galli); experiment: Test A preemergence; conditions: Preemergence; for Plant response rating, Barnyardgrass: 125 g ai/ha, visual injury after approximately 10 d, 0 to 100 scale where 0 is no effect and 100 is complete control; for Barnyardgrass plant response rating (0 to 100 scale, 0 is no effect, 100 is complete control): 500 g ai/ha, visual injury approx. 10 d
How it was run: as §2

[14] = test system: pigweed (Amaranthus retroflexus); experiment: Test A preemergence; conditions: Preemergence; for Plant response rating, Pigweed: 125 g ai/ha, visual injury after approximately 10 d, 0 to 100 scale where 0 is no effect and 100 is complete control; for Pigweed plant response rating (0 to 100 scale, 0 is no effect, 100 is complete control): 500 g ai/ha, visual injury approx. 10 d
[15] = test system: ryegrass, Italian (Italian ryegrass, Lolium multiflorum); experiment: Test A preemergence; conditions: Preemergence; for Plant response rating, Ryegrass, Italian: 125 g ai/ha, visual injury after approximately 10 d, 0 to 100 scale where 0 is no effect and 100 is complete control; for Ryegrass, Italian plant response rating (0 to 100 scale, 0 is no effect, 100 is complete control): 500 g ai/ha, visual injury approx. 10 d
How it was run: as §2

[16] = test system: ragweed (common ragweed, Ambrosia elatior); experiment: Test A preemergence; conditions: Preemergence; for Plant response rating, Ragweed: 125 g ai/ha, visual injury after approximately 10 d, 0 to 100 scale where 0 is no effect and 100 is complete control; for Ragweed plant response rating (0 to 100 scale, 0 is no effect, 100 is complete control): 500 g ai/ha, visual injury approx. 10 d
How it was run: as §2

[17] = test system: giant foxtail (Setaria faberii); experiment: Test A preemergence; conditions: Preemergence; for Plant response rating, Foxtail, Giant: 125 g ai/ha, visual injury after approximately 10 d, 0 to 100 scale where 0 is no effect and 100 is complete control; for Foxtail, Giant plant response rating (0 to 100 scale, 0 is no effect, 100 is complete control): 500 g ai/ha, visual injury approx. 10 d
How it was run: as §2

Kochia (Kochia scoparia) [18] = experiment: Test A preemergence; conditions: Preemergence; for Plant response rating, Kochia: 125 g ai/ha, visual injury after approximately 10 d, 0 to 100 scale where 0 is no effect and 100 is complete control; for Kochia plant response rating (0 to 100 scale, 0 is no effect, 100 is complete control): 500 g ai/ha, visual injury approx. 10 d
How it was run: as §2

[19] = 125 g ai/ha, postemergence, visual injury rating on 0 to 100 scale (0 no effect, 100 complete control), approx. 10 d
[20] = Postemergence, 500 g ai/ha, 0 to 100 scale where 0 is no effect and 100 is complete control
[21] = 125 g ai/ha, postemergence, visual rating after approx. 10 d, 0 to 100 scale (0 no effect, 100 complete control)

| SMILES | Plant response rating, Barnyardgrass [1] | Plant response rating, Ducksalad [2] | Plant response rating, Rice (rice (Oryra sativa)) | Plant response rating, Sedge, Umbrella [3] | Plant response rating, Barnyardgrass [4, 20] | Plant response rating, Pigweed [5, 20] | Plant response rating, Ryegrass, Italian [6, 20] | Plant response rating, Ragweed [7, 20] | Plant response rating, Foxtail, Giant [8, 20] | Plant response rating, Galium [9, 20] | Plant response rating, Blackgrass [10, 20] | Plant response rating, Kochia (Kochia (Kochia scoparia) [11]; [20]) | Plant response rating, Corn (corn (Zea mays); [20]) | Plant response rating, Wheat [12, 20] | Plant response rating, Barnyardgrass [13] | Barnyardgrass plant response rating (0 to 100 scale, 0 is no effect, 100 is complete control) [13] | Plant response rating, Pigweed [14] | Pigweed plant response rating (0 to 100 scale, 0 is no effect, 100 is complete control) [14] | Plant response rating, Ryegrass, Italian [15] | Ryegrass, Italian plant response rating (0 to 100 scale, 0 is no effect, 100 is complete control) [15] | other results |
| --- | --- | --- | --- | --- | --- | --- | --- | --- | --- | --- | --- | --- | --- | --- | --- | --- | --- | --- | --- | --- | --- |
| CN1CC(c2cccc(OC(F)F)c2)C(C(=O)Nc2ccccc2S(C)(=O)=O)C1=O (stereo not drawn) [Compound 523] | 50 | 50 | 0 | 0 | 90 | 60 | 70 | 50 | 90 | 60 | 70 | 50 | 80 | 70 | 90 | 90 | 80 | 90 | 40 | 90 | Barnyardgrass plant response rating [4, 19]: 90; Pigweed plant response rating [5, 19]: 30; Ryegrass, Italian plant response rating [6, 19]: 30; Ragweed plant response rating [7, 19]: 50; Foxtail, Giant plant response rating [8, 19]: 80; Galium plant response rating [9, 19]: 50; Blackgrass plant response rating [10, 19]: 50; Kochia plant response rating (Kochia (Kochia scoparia) [11]; [19]): 20; Corn plant response rating (corn (Zea mays); [19]): 20; Wheat plant response rating [12, 19]: 0; Plant response rating, Ragweed [16]: 60; Ragweed plant response rating (0 to 100 scale, 0 is no effect, 100 is complete control) [16]: 80; Plant response rating, Foxtail, Giant [17]: 90; Foxtail, Giant plant response rating (0 to 100 scale, 0 is no effect, 100 is complete control) [17]: 90; Plant response rating, Kochia (Kochia (Kochia scoparia) [18]): 0; Kochia plant response rating (0 to 100 scale, 0 is no effect, 100 is complete control) (Kochia (Kochia scoparia) [18]): 80 |
| O=C1NCC(c2cccc(C(F)(F)F)c2F)C1C(=O)Nc1cccc(F)c1F (stereo not drawn) [Compound 591] | 65 | 100 | 35 | 0 | 90 | 70 | 70 | 30 | 90 | 50 | 60 | 60 | 80 | 60 | 90 | 90 | 0 | 40 | 20 | 60 | Plant response rating, Barnyardgrass [4, 21]: 90; Plant response rating, Pigweed [5, 21]: 20; Plant response rating, Ryegrass, Italian [6, 21]: 0; Plant response rating, Ragweed [7, 21]: 0; Plant response rating, Foxtail, Giant [8, 21]: 90; Plant response rating, Galium [9, 21]: 40; Plant response rating, Blackgrass [10, 21]: 50; Plant response rating, Kochia (Kochia (Kochia scoparia) [11]; [21]): 20; Plant response rating, Corn (corn (Zea mays); [21]): 70; Plant response rating, Wheat [12, 21]: 50; Plant response rating, Ragweed [16]: 0; Ragweed plant response rating (0 to 100 scale, 0 is no effect, 100 is complete control) [16]: 60; Plant response rating, Foxtail, Giant [17]: 90; Foxtail, Giant plant response rating (0 to 100 scale, 0 is no effect, 100 is complete control) [17]: 90; Plant response rating, Kochia (Kochia (Kochia scoparia) [18]): 30; Kochia plant response rating (0 to 100 scale, 0 is no effect, 100 is complete control) (Kochia (Kochia scoparia) [18]): 60 |
